Laboratory results: paper PMC4841555, “Optimization of the All-D Peptide D3 for Aβ Oligomer Elimination” (PLoS ONE, 2016)
pEC50: −log10 of the molar value. “And” between values parts separate entries of the source, which are not always exact repeats. Equal values may be shown once. Non-standard residues stand in square brackets, D forms with d. Residues, ends and D or L forms follow the SMILES beside them.

Key:
transgenic mice = settings: ref [10], [15], [16], cited from earlier work
From the text: We have previously selected the 12mer all-D-enantiomeric peptide D3 via mirror image phage display. In vitro, D3 binds to amyloid plaques, reduces Aβ aggregation to regular fibrils, eliminates Aβ oligomers and converts preformed fibrils into non-amyloidogenic, non-fibrillar, non-toxic aggregates. In vivo, the plaque load and cerebral inflammation of transgenic mice is reduced after injection of D3 into the brain and cognitive impairment of transgenic mice is improved after oral application. The original phage library, from which D3 was selected, coded ...

Aβ(1–42) [1] = biological target: T1, Aβ(1–42) (Homo sapiens, UniProt P05067); test: Thioflavin T (ThT) fibril formation assay; assay type: biochemical; settings: 20 μM Aβ(1–42), 20 μM peptide (method: 31 μg/ml), 20 μM ThT, 10 mM sodium phosphate pH 7.4, 37°C, compared after 5 h with Aβ(1–42)-only control
T1 construct: Aβ(1–42), N-terminally biotinylated Aβ(1–42) and FITC-Aβ(1–42) were purchased from Bachem; purchased Bachem (Heidelberg, Germany)
Experimental: 20 μM Aβ(1–42) was mixed with 20 μM Thioflavin T (ThT) and 31 μg/ml DB3 or DB3DB3 in 10 mM sodium phosphate buffer, pH 7.4. The assay was performed using a non-binding 96 well plate (Greiner Bio-One, Frickenhausen, Germany). ThT fluorescence was measured every 15 min at λex = 440 nm and λem = 490 nm in a temperature-controlled plate reader (Polarstar Optima, BMG, Offenburg, Germany) at 37°C with 1 min agitation before every measurement. Each value was background corrected using the ThT fluorescence of a peptide solution without Aβ(1–42). To investigate the influence of DB1 to DB5 on Aβ fibril formation, a Thioflavin T (ThT) assay was performed. In an aqueous environment the benzothiazole dye has a low fluorescence. […] The emission at 490 nm is directly proportional to the quantity of amyloid fibrils. Fibril formation of Aβ can be followed in real time by measuring the ThT fluorescence. Therefore, the inhibitory effects of the D-peptides DB1 to DB5 and D3 were investigated by co-incubating these peptides with Aβ(1–42) and performing the ThT assay. Fluorescence emission data were compared after 5 h incubation, because after this period the Aβ(1–42) control (without added peptide) reached its fluorescence maximum. […] 20 μM Aβ(1–42) was mixed with 20 μM DB1 to DB5 or 10 μM DB3DB3 and the ThT fluorescence was monitored. Aβ(1–42) without peptide addition was taken as the control. The ThT fluorescence of all samples were compared after 5 h, where the control, Aβ(1–42) only, reached its maximum in fluorescence emission. The Mann-Whitney-U-test was used for statistical analysis. * p < 0.05; ** p < 0.01; *** p < 0.001.

PC12 cells = test: MTT cell viability assay; assay type: cell-based, rat; settings: 5 μM peptide without Aβ, 24 h
Experimental: Rat pheochromocytoma PC12 cells (Leibniz Institute DSMZ, Braunschweig, Germany) were cultivated in DMEM medium supplemented with 10% fetal bovine serum and 5% horse serum. 10,000 cells per well were seeded on collagen-coated 96 well plates (Gibco, Life technology, Carlsberg, USA) and incubated in a 95% humidified atmosphere with 5% CO2 at 37°C for 24 h. […] DB peptide was then added at different concentrations and incubated for further 40 min at 21°C and 600 rpm agitation before addition to the PC12 cells. […] Cell viability was then measured using the Cell proliferation Kit I (MTT) (Roche, Basel, Switzerland) according to the manufacturer’s instruction. The absorbance of the formazan product was determined by measuring at 570 nm after subtracting the absorption at 660 nm. For absorption measurements, a Polarstar Optima plate reader (BMG, Offenburg, Germany) was used. All results were normalized to cells that were treated with buffer only.
The cell viability assay was performed using PC12 cells in a MTT test. […] The absorption of buffer treated cells was set to 100% cell viability. […] The Mann-Whitney-U-test was used for statistical analysis. * p < 0.05; ** p < 0.01; *** p < 0.001.

Aβ(1–42) [2] = biological target: T1, Aβ(1–42); test: Aβ aggregation inhibition ELISA; assay type: biochemical; settings: 400 nM Aβ(1–42), 500 mM Tris pH 7.4, 23 h, 37°C, aggregate-specific ELISA, logistic fit, three independent experiments; read-out: EC50 of inhibition of Aβ aggregate formation
Experimental: Freshly dissolved monomeric Aβ(1–42) (400 nM in 500 mM Tris-buffer pH 7.4) was incubated with and without DB peptides in different concentrations (0.01, 0.05, 0.1, 0.5, 1, 5, 10, 50 and 100 μM for DB3 or half of the molar concentrations in case of DB3DB3) in a humidity chamber for 23 h at 37°C. The aggregation was analyzed by an enzyme-linked immunosorbent assay (ELISA). NP27 antibody in bicarbonate/carbonate buffer was used to coat the ELISA plate overnight. Then the plate was washed in PBS-Tween buffer (1x PBS + 0.05% Tween) and blocked for 2 h at room temperature with 5% casein buffer. After washing, Aβ aggregate solutions were added to the plate and incubated for 1 h at room temperature. The plate was washed again and bound Aβ aggregates were detected by biotinylated 6E10/HRP-avidin mediated immunoreaction (BioLegend, San Diego, CA USA) using TMB as detection reagent. […] Mean value and standard error were calculated from three independent experiments. EC50 was calculated by fitting the data to a logistic dose response function.
Fig 5 Inhibition of Aβ fibril formation and Aβ aggregation disassemble by DB3 and DB3DB3. A) Monomeric Aβ(1–42) (400 nM) was mixed with different concentrations of DB3 (0.01, 0.05, 0.1, 0.5, 1, 5, 10, 50, 100 μM) and the aggregation state of Aβ was analyzed using an Aβ aggregate specific ELISA. […] All data were determined in triplicate. […]

[3] = biological target: T2, preformed Aβ(1–42) aggregates (Homo sapiens, UniProt P05067); test: Aβ aggregate disassembly ELISA; assay type: biochemical
T2 construct: Aβ(1–42), N-terminally biotinylated Aβ(1–42) and FITC-Aβ(1–42) were purchased from Bachem; purchased Bachem (Heidelberg, Germany)
Experimental: Freshly dissolved monomeric Aβ(1–42) (400 nM in 500 mM Tris-buffer pH 7.4) was incubated in a humidity chamber for 22 h at 37°C in order to preform Aβ(1–42) aggregates. These preformed aggregates were coincubated with D-peptide in different concentrations (0.01, 0.05, 0.1, 0.5, 1, 5, 10, 50, 100 μM for DB3 or with half of the molar concentrations in case of DB3DB3) for additional 22 h at 37°C. The content of Aβ aggregates was measured and evaluated in the same way as the aggregation inhibition ELISA.
Fig 5 Inhibition of Aβ fibril formation and Aβ aggregation disassemble by DB3 and DB3DB3. A) Monomeric Aβ(1–42) (400 nM) was mixed with different concentrations of DB3 (0.01, 0.05, 0.1, 0.5, 1, 5, 10, 50, 100 μM) and the aggregation state of Aβ was analyzed using an Aβ aggregate specific ELISA. For DB3DB3 half of the molar concentrations compared to DB3 were used. Aβ without DB3 and DB3DB3 addition was taken as control. For DB3 an EC50 of 6 μM was calculated using a logistic fit model. DB3DB3 inhibited the formation of Aβ fibrils more efficiently with an EC50 of 7 nM. B) The disassembly properties of DB3 and DB3DB3 were measured using an Aβ aggregation specific ELISA. Monomeric Aβ(1–42) (400 nM) was preincubated in order to form fibrils and mixed with nine different concentrations of DB3 (0.01, 0.05, 0.1, 0.5, 1, 5, 10, 50, 100 μM). For DB3DB3, the molar concentrations were half those used for DB3. […] DB3DB3 disassembled Aβ aggregates at the lowest concentration […]. Thus, the EC50 could not be determined, but is < 10 nM. All data were determined in triplicate. The Mann-Whitney-U-test was performed for statistical analysis. * p< 0.05; ** p < 0.01; *** p < 0.001
The Aβ aggregate disassembly ELISA was used to analyze the effect of DB3 and DB3DB3 on preformed Aβ aggregates (Fig 5B). […] The Aβ aggregates specific ELISA was used to quantify Aβ aggregates. […] The results of measured Aβ aggregates normalized to the Aβ control were plotted against the peptide concentration. The EC50 was calculated by a logarithmic dose response function.

Aβ(1–42) oligomers = biological target: T3, Aβ(1–42) oligomers (Homo sapiens, UniProt P05067); test: QIAD assay (Aβ oligomer elimination); assay type: biochemical; settings: 10 μM DB3DB3, 80 μM Aβ(1–42) preincubated 4.5 h, 40 min with peptide, density gradient centrifugation, RP-HPLC, triplicate
T3 construct: Aβ(1–42), N-terminally biotinylated Aβ(1–42) and FITC-Aβ(1–42) were purchased from Bachem; purchased Bachem (Heidelberg, Germany)
Experimental: The quantitative determination of interference with Aβ(1–42) aggregate size distribution (QIAD) was performed as described before. In brief, 80 μM Aβ(1–42) was incubated in 10 mM sodium phosphate buffer, pH 7.4 for 4.5 h at 22°C with 600 rpm agitation. Aβ(1–42) aggregation was continued for an additional 40 min with or without DB peptide. The obtained partial size distribution was analyzed by applying density gradient centrifugation. 100 μl of the incubated sample was placed on top of a gradient with 5 to 50% iodixanol (Optiprep, Axis-shield, Oslo, Norway) and separated at 259.000 x g for 3 h at 4°C using an ultracentrifuge (Optima MAX-XP, Beckman Coulter, Brea, USA). Fourteen fractions of 140 μl were taken from top to bottom. […] For quantification of the Aβ(1–42) amount in each fraction, reversed-phase high performance liquid chromatography (RP-HPLC) was performed using a Zorbax SB-300 C8 column (Agilent, Böblingen, Germany) connected to an Agilent 1260 Infinity system using 30% (v/v) acetonitrile with 0.1% (v/v) trifluoroacetic acid (TFA) as the mobile phase with a flow of 1 ml/min and a column temperature of 80°C. […] The UV absorption at 214 nm was measured. For quantification of the Aβ(1–42) amount, the area under the peak representing Aβ(1–42) was calculated and the molar concentration was determined using a calibration curve. […]

T1 sequence (P05067 672-713 limits assumed): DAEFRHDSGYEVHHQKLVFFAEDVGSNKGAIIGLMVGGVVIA
T2 sequence (P05067 672-713 limits assumed): as above
T3 sequence (P05067 672-713 limits assumed): as above

For “RPRTRLHTHRNR [D3, 12mer all-D-enantiomeric peptide selected via mirror image phage display, C-terminally amidated]”, the “plaque load and cerebral inflammation of transgenic mice” value (transgenic mice; injection of D3 into the brain) is given as “reduced”, the “cognitive impairment of transgenic mice” value (transgenic mice; oral application) is given as “improved” and the “inhibition of Aβ(1–42) fibril formation (ThT fluorescence)” value (“inhibition of Aβ(1–42) fibril formation” for short) (Aβ(1–42) [1]) is given as 30%.
For “RPRTRLRTHQNR [DB4, all-D D3 derivative, C-terminally amidated]”, the “inhibition of Aβ(1–42) fibril formation” value (Aβ(1–42) [1]) was “no effect”.
In the case of “RPITRLQTHEQR [DB5, all-D D3 derivative, C-terminally amidated]”, the “inhibition of Aβ(1–42) fibril formation” value (Aβ(1–42) [1]) was 76%.
In the case of “RPITRLHTDRNR [DB1, all-D D3 derivative, C-terminally amidated]”, the “inhibition of Aβ(1–42) fibril formation” value (Aβ(1–42) [1]) was 63%.
In the case of `CC[C@@H](C)[C@@H](NC(=O)[C@H]1CCCN1C(=O)[C@H](N)CCCNC(=N)N)C(=O)N[C@@H](C(=O)N[C@H](CCCNC(=N)N)C(=O)N[C@H](CC(C)C)C(=O)N[C@H](CCCNC(=N)N)C(=O)N[C@@H](C(=O)N[C@H](Cc1c[nH]cn1)C(=O)N[C@H](CCC(N)=O)C(=O)N[C@H](CC(N)=O)C(=O)N[C@H](CCCNC(=N)N)C(=O)N[C@H](CCCNC(=N)N)C(=O)N1CCC[C@@H]1C(=O)N[C@@H](C(=O)N[C@@H](C(=O)N[C@H](CCCNC(=N)N)C(=O)N[C@H](CC(C)C)C(=O)N[C@H](CCCNC(=N)N)C(=O)N[C@@H](C(=O)N[C@H](Cc1c[nH]cn1)C(=O)N[C@H](CCC(N)=O)C(=O)N[C@H](CC(N)=O)C(=O)N[C@H](CCCNC(=N)N)C(N)=O)[C@H](C)O)[C@H](C)O)[C@H](C)CC)[C@H](C)O)[C@H](C)O` [DB3DB3] (H-[dR][dP][dI][dT][dR][dL][dR][dT][dH][dQ][dN][dR][dR][dP][dI][dT][dR][dL][dR][dT][dH][dQ][dN][dR]-NH2), the “effect of peptide alone on PC12 cell viability” value (PC12 cells) was “not toxic”, the pEC50 (Aβ(1–42) [2]) was 8.10 and 8.15 and the “disassembly of the Aβ aggregates” value ([3]; 10 nM DB3DB3 added to 400 nM Aβ, compared to Aβ in the absence of peptide) was 80%. For the same molecule, the pEC50 ([3]; 400 nM Aβ(1–42) preincubated 22 h at 37°C, then with peptide 22 h (24 h) at 37°C, ELISA, triplicate) was > 8.00 and the “reduction of the content of Aβ oligomers” value (Aβ(1–42) oligomers) was 82%.
With “RPITTLQTHQNR [DB2, all-D D3 derivative, C-terminally amidated]” the “inhibition of Aβ(1–42) fibril formation” value (Aβ(1–42) [1]) was 49%.
